Experiments:
[1] = Cytotoxicity assay on macrophages (resazurin); format: cell-based, BALB/c mice; conditions: mouse, J774 macrophages, values marked e correspond to 100 μg/mL, the higher dose tested
Experimental: The assay was carried out as previously described.[30] J774 macrophages cell lines were seeded (5 × 10^4 cells/well) in 96-well flat-bottom microplates with 100 μL of RPMI 1640 medium. The cells were allowed to attach for 24 h at 37 °C and 5% CO2, and the medium was replaced by different concentrations of the compounds in 200 μL of medium and exposed for another 24 h. Growth controls and signal-to-noise were also included. Afterward, a volume of 20 μL of 2.5 mM resazurin solution was added, and plates were returned to the incubator for another 3 h to evaluate cell viability. The reduction of resazurin was determined by fluorometry as in the promastigote assay. Each concentration was assayed three times.

[2] = tested on: L. amazonensis amastigotes; experiment: In vitro intracellular amastigote susceptibility assay in J774 macrophages; format: cell-based; conditions: for IC50: Leishmania amazonensis, L. amazonensis intracellular amastigotes in J774, 48 h, N/A = not active at 100 μg/mL
Experimental: (§1) The following species of Leishmania were used: L. donovani (MHOM/IN/80/DD8) was purchased (ATCC, USA) and L. amazonensis (MHOM/Br/79/Maria) was kindly provided by Prof. Alfredo Toraño (Instituto de Salud Carlos III, Madrid). Promastigotes were cultured in Schneider’s insect medium supplemented with 10% heat-inactivated fetal bovine serum (FBS) and 1000 U/L of penicillin plus 100 mg/L of streptomycin in 25 mL culture flasks at 26 °C. The assay was carried out as previously described.[29] Briefly, 5 × 10^4 J774 macrophages and stationary promastigotes in a 1:5 ratio were seeded in each well of a microtiter plate, suspended in 200 μL of culture medium, and incubated for 24 h at 33 °C in a 5% CO2 chamber. After this first incubation, the temperature was increased up to 37 °C for another 24 h. Thereafter, cells were washed several times in culture medium by centrifugation at 1.500g for 5 min in order to remove free non-internalized promastigotes. Finally, the supernatant was replaced by 200 μL/well of culture medium containing 2-fold serial dilutions of the test compounds as in promastigotes assay. Growth control and signal-to-noise were also included. Following incubation for 48 h at 37 °C and 5% CO2, the culture medium was replaced by 200 μL/well of the lysis solution (RPMI-1640 with 0.048% HEPES and 0.01% SDS) and incubated at room temperature for 20 min. Thereafter, the plates were centrifuged at 3.500g for 5 min and the lysis solution was replaced by 200 μL/well of Schneider’s insect medium. The culture plates were then incubated at 26 °C for another 4 days to allow transformation of viable amastigotes into promastigotes and proliferation. Afterward, 20 μL/well of 2.5 mM resazurin was added and incubated for another 3 h. Finally, fluorescence emission was measured and IC50 was estimated as described above. All tests were carried out in triplicate. Miltefosine (Sigma-Merck, Madrid, Spain) was used as the reference drug and was evaluated under the same conditions. The IC50 and SI were calculated as in the previous section.

[3] = tested on: L. amazonensis (MHOM/Br/79/Maria) promastigotes; experiment: In vitro promastigote susceptibility assay (resazurin); format: cell-based; conditions: for SI (selectivity index, SI = CC50/IC50): CC50 J774 / IC50 L. amazonensis promastigotes; for IC50: Leishmania amazonensis, L. amazonensis promastigotes, 48 h at 26 °C, triplicate, N/A = not active at 100 μg/mL
Experimental: (§2) The following species of Leishmania were used: L. donovani (MHOM/IN/80/DD8) was purchased (ATCC, USA) and L. amazonensis (MHOM/Br/79/Maria) was kindly provided by Prof. Alfredo Toraño (Instituto de Salud Carlos III, Madrid). Promastigotes were cultured in Schneider’s insect medium supplemented with 10% heat-inactivated fetal bovine serum (FBS) and 1000 U/L of penicillin plus 100 mg/L of streptomycin in 25 mL culture flasks at 26 °C. […] New samples of the compounds have been prepared according to the protocol described above, and subsequently solutions of the chemical compound to be assayed have been dissolved in DMSO at 50 mg/mL. […] Growth control and signal-to-noise control were also included. The final solvent (DMSO) concentrations never exceeded 0.5% (v/v) warranting no effect on parasite proliferation or morphology. After 48 h at 26 °C, 20 μL of a 2.5 mM resazurin solution was added to each well and the plates were returned to the incubator for another 3 h. […] Growth inhibition (%) was calculated by 100 – [(RFU treated wells – RFU signal-to-noise)/(RFU untreated – RFU signal-to-noise) × 100]. All tests were carried out in triplicate. Miltefosine (Sigma-Merck, Madrid, Spain) was used as the reference drug and was evaluated under the same conditions. […] The selectivity index (SI) was calculated as the ratio between cytotoxicity (CC50) and activity against parasites (IC50).

[4] = tested on: L. donovani (MHOM/IN/80/DD8) promastigotes; experiment: as above; format: cell-based; conditions: for SI (selectivity index, SI = CC50/IC50): CC50 J774 / IC50 L. donovani promastigotes; for IC50: Leishmania donovani, L. donovani promastigotes, 48 h at 26 °C, triplicate, N/A = not active at 100 μg/mL
Experimental: as §2

L. donovani amastigotes = experiment: In vitro intracellular amastigote susceptibility assay in J774 macrophages; format: cell-based; conditions: for IC50: Leishmania donovani, L. donovani intracellular amastigotes in J774, 48 h, N/A = not active at 100 μg/mL
Experimental: as §1, with “Miltefosine (Sigma-Merck, Madrid, Spain) was used as the reference drug and was evaluated under the same conditions.” left out

[5] = target: Leishmania donovani Promastigotes; design: method as in J. Med. Chem., ( 1991), 34, 9, 2798; conditions: ChEMBL dataset, some flagged Outside typical range, ref J. Med. Chem., ( 1991), 34, 9, 2798, read-out: vij, Ki; cited from earlier work
[6] = macrophages J774, 24 h exposure, Table 2
[7] = macrophages J774, Table 3 (amastigote assay table)

In the case of O=C(c1ccc(Br)cc1)c1cccn1-c1ncccn1 [5af], the CC50 at 24 h [1, 6] is reported as > 305 µM, the CC50 at 24 h [1, 7] is reported as > 305 µM and the “SI (selectivity index, SI = CC50/IC50)” value ([2]; CC50 J774 / IC50 L. amazonensis amastigotes) is reported as >1.99. For the same molecule, the IC50 [2] was 153 ± 9.11 µM, the “SI (selectivity index, SI = CC50/IC50)” value [3] was >4.54 and the IC50 [3] was 67.2 ± 4.94 µM. The “SI (selectivity index, SI = CC50/IC50)” value [4] was >2.58, the IC50 [4] was 118 ± 25.8 µM and the “SI (selectivity index, SI = CC50/IC50)” value (L. donovani amastigotes; CC50 J774 / IC50 L. donovani amastigotes) was >1.45. It also gave an IC50 (L. donovani amastigotes) of 211 ± 30.3 µM.
For Cc1cccnc1-n1cccc1C(=O)c1ccc(C(C)(C)C)cc1 [5bc], the CC50 at 24 h [1, 6] was > 314 µM, the CC50 at 24 h [1, 7] was > 314 µM and the IC50 [2] was 60.6 ± 7.88 µM. For the same molecule, the “SI (selectivity index, SI = CC50/IC50)” value [3] was >10.17, the IC50 [3] was 30.9 ± 3.11 µM and the “SI (selectivity index, SI = CC50/IC50)” value [4] was >1.42. For the same molecule, the IC50 [4] was 221 ± 36.9 µM and the IC50 (L. donovani amastigotes) was > 100 µg/mL.
For C=CCCCC(N)C[C@H]1OC(n2cnc3c(N)ncnc32)[C@H](O)[C@@H]1O (stereo partly drawn) [CHEMBL607696], the Ki [5] is listed as 877 µM.
In the case of Nc1ncnc2c1ncn2C1O[C@H](C[C@@H](N)CC[C@@H](N)C(=O)O)[C@@H](O)[C@H]1O (stereo partly drawn) [CHEMBL608870], the Ki [5] is listed as 49 µM.
For NCCC(CN)C[C@H]1OC(n2cnc3c(N)ncnc32)[C@H](O)[C@@H]1O (stereo partly drawn) [CHEMBL611866], the Ki [5] is listed as 1120 µM.
